Earlier results on 1 compound are cited in patent US8455508B2, “Sustained release parenteral formulations of buprenorphine” (priority 2007, dated 2013).

The conditions of this data set: in oil.

Each structure is given as a SMILES string.

With `CCCCCCCCCC(=O)Oc1ccc2c3c1OC1C4(OC)CCC5(CC4C(C)(O)C(C)(C)C)C(C2)N(CC2CC2)CCC315` (stereo not shown) [buprenorphine decanoate], the “duration of action relative to buprenorphine HCl in saline” value is 14 fold.
